Assay results taken from patent US9078894B2 (AB SCIENCE, priority 2011, dated 2015).
Values joined by “and” are separate entries in the source; they are usually repeats but may differ in a detail not shown here. Equal values may be shown once.

Key:
[1] = test system: Balb/c male mice sensitized with ovalbumine; experiment: Murine model of allergic airway inflammation (ovalbumine); assay type: in vivo, mouse; details: oral, twice daily, 25 and 100 mg/kg/day; sensitized and challenged animals
Procedure: Balb/c male mice aged 9 weeks were sensitized with ovalbumine (50 μg) adsorbed with Al(OH)3 diluted in physiological saline (0.9% NaCl) by intraperitoneal injection on day 1 and 7. Sensitization was followed by intranasal challenges with ovalbumine (10 μg) diluted in 0.9% NaCl every day from day 18 to day 21. Non sensitized control animals received intraperitoneal injections of vehicle alone followed by intranasal challenges with NaCl 0.9% alone at the same time than the sensitized animals. […] On day 22, airway hyper responsiveness (AHR) was measured by the enhanced pause (PenH) in the whole body plethysmograph. The bronchoconstrictive response was evaluated as the response to a concentration-dependent methacholine (MCh) aerosol exposure. Mice were first exposed to a saline aerosol then to an aerosol generated from increasing concentrations of methacholine (0.05, 0.1, 0.2, 0.3, and 0.4M). Infiltration of inflammatory cells was measured immediately after assessment of AHR to methacholine via collection of bronchoalveolar lavage (BAL) fluid by lavage of the whole lung with physiological saline containing 1.6 mM EDTA. Cells were counted in the BAL and cell types identified by morphological criteria after Hemacolor staining.

[2] = test system: experimentally asthmatic cats; experiment: Experimental feline asthma, randomized blinded placebo-controlled study; assay type: in vivo, cat
Text: Twelve experimentally asthmatic cats were enrolled in a randomized, blinded, placebo-controlled study. […] Exclusion criteria were evidence of cardiac insufficiency, evidence of gastric bleeding, major surgery within 2 weeks of treatment initiation, life expectancy less than 3 months, lactating or pregnant cats or cats intended for breeding, previous history of kidney disease or previous known episodes of proteinuria, administration of food listed on the “recall list” issued by FDA or vaccination within 4 weeks prior to enrollment, and any concurrent medical illness. […] Bronchoalveolar lavage fluid (BALF) eosinophil percentages and airway hyper-reactivity, determined by changes in ventilator mechanics in response to methacholine (MCh) challenge were evaluated at baseline, weeks 4, 8 and 12. Results of the MCh challenge were reported as the effective concentration of MCh that increased baseline airway resistance by 200% (EC200Raw) and the end-inspiratory pressure after a breath hold (plateau pressure, Pplat). Treatment was interrupted or discontinued if predetermined adverse events were noted. Cats naïve to Bermuda grass allergen (BGA) confirmed by intradermal skin testing (IDST) and with normal BALF underwent allergen sensitization. IDST was re-evaluated to confirm allergen sensitization. Next, allergen challenge of BGA as an aerosol in awake, spontaneously breathing cats was performed. Allergen solution (100 μg of BGA dissolved in PBS) was aerosolized into a clear chamber using an air compressor attached to a nebulizer. Seven challenges were administered over the next 2 weeks, at which time BALF was repeated to confirm development of eosinophilic airway inflammation. Bronchoalveolar lavage fluid was collected in a blind fashion at baseline and weeks 4, 8, and 12 of the study. Collection of BALF was obtained after Mch challenge and under the same anesthesia. A total nucleated cell count was performed on each BALF sample using a coulter counter. Cytological evaluation and differential cell counts were performed on samples prepared by cytocentrifugation. Differential cell counts (200 nucleated cells per slide) on modified Wright's stained slides were performed, and cell percentages were reported.

[3] = test system: asthmatic patients with severe persistent asthma; experiment: Phase 2a 16-week double-blind placebo-controlled study in severe persistent asthma; assay type: in vivo, human; parameters: Oral corticosteroids absolute change (W 4 to W 16), Mean ± SD / Oral corticosteroids absolute change (W 4 to W 16), Median: unit not given here
Text: The trial consisted of three phases: during the first 4 weeks, the corticosteroid dose remained constant; during the following 8 weeks, oral corticosteroid doses were decreased each week according to a predefined schedule, until weaning or an asthma exacerbation occurred; the final 4 weeks were a stabilization period for observation. Asthma exacerbation was defined as a deterioration of asthma symptoms requiring an emergency visit, a hospitalization or an increase in oral corticosteroid treatment. In case an asthma exacerbation occurred, oral corticosteroid therapy was resumed at the level prior to this occurrence following the acute treatment phase. Patients underwent a visit every 2 weeks during the first 4 weeks, then a weekly visit for the following 12 weeks. A possible treatment extension was part of the study protocol in case of clinical benefit, based on the investigators assessment. In these extension phases the follow-up of patients took place every 4 weeks during the first 3 months and then every 12 weeks until the end of the study. The primary objective was to measure the reduction of oral corticosteroids doses after 16 weeks of treatment. Therefore, efficacy and safety measurements were assessed at enrolment of each patient in the study prior to the administration of the investigational compound and then at week 2, and weekly from weeks 4 through to 16. The secondary objectives were to monitor the change from baseline in symptomatic scores (asthma control questionnaire, ACQ), the FEV1 and rescue medication intake when necessary. Patients, 18 to 75 years of age with a diagnosis of asthma for ≧3 years and severe uncontrolled disease for ≧1 year, and followed up at the same centre for ≧1 year, were eligible for this study. […] Exclusion criteria included: (a) any other significant respiratory or cardiac disease; (b) worsening of asthma symptoms requiring treatment with additional oral corticosteroids within 4 weeks of screening; (c) any other infections; (d) a history of acute infection requiring hospitalization or treatment with antibiotics within 2 weeks of screening; (e) rare variants of severe asthma such as Churg-Strauss syndrome or allergic bronchopulmonary aspergillosis; […] A treatment wash-out period of 4 months at time of enrolment was required for prior use of omalizumab.

[4] = test system: human cord blood mast cells; details: cited from earlier work
patients [5] = details: 20 of 4127 patients; cited from earlier work
patients [6] = details: estimated exposure of about 57,300 patients, June 2003 through December 2006; cited from earlier work
[7] = ITT population, 3.0 mg/kg/day (N = 12)
[8] = ITT population, 4.5 mg/kg/day (N = 11)
[9] = ITT population, 6.0 mg/kg/day (N = 10)
[10] = ITT population, all masitinib (N = 33)
[11] = subpopulation initially treated with >15 mg prednisone daily, 3.0 mg/kg/day (N = 9)
[12] = subpopulation initially treated with >15 mg prednisone daily, 4.5 mg/kg/day (N = 4)
[13] = subpopulation initially treated with >15 mg prednisone daily, 6.0 mg/kg/day (N = 6)
[14] = subpopulation initially treated with >15 mg prednisone daily, all masitinib (N = 19)

Compound: Cc1ccc(NC(=O)c2ccc(CN3CCN(C)CC3)cc2)cc1Nc1nc(-c2cccnc2)cs1 [masitinib, 4-(4-methylpiperazin-1-ylmethyl)-N-[4-methyl-3-(4-pyridin-3ylthiazol-2-ylamino)phenyl]benzamide]
- Penh (airway hyper responsiveness) [1]: a decrease of Penh
- number of eosinophils in the bronchoalveolar lavage fluid [1]: marked decrease
- proteinuria, cats affected ([2]; 50 mg/day, p=0.002 vs placebo): every cat
- group mean±SD % BALF eosinophils ([2]; after 4 weeks of therapy, 50 mg orally once daily, p=0.023 vs placebo): 7±9%
- Pplat with MCh challenge ([2]; after 4 weeks of therapy, no significant increase in masitinib-treated cats (p=0.32)): blunting of airflow limitation
- group mean±SD EC200Raw, difference between groups ([2]; at baseline or after 4 weeks of therapy, MCh challenge): no significant difference
- permanent discontinuation due to proteinuria ([2]; at or after week 4): four
- temporary drug interruption followed by dose reduction due to proteinuria ([2]; at or after week 4): two
- other side effects suspected of being associated with masitinib administration ([2]; infrequent overall, no specific therapy required): vomiting, diarrhea, Heinz bodies, hypoalbuminemia, hypoglobulinemia, hypercholesterolemia and ALT increase
- masitinib-treated cats with % BALF eosinophils <17% ([2]; week 4): five of six
- % BALF eosinophils, values of individual cats ([2]; week 4, the five masitinib-treated cats below 17%): 1% (2×) and 2% and 3.5% and 15%
- change in Pplat with MCh challenge versus saline aerosol, compared between treatment groups ([2]; week 4 compared to baseline): significant (p=0.033) decrease
- ACQ score change ([3]; 3.0 mg/kg dose): 0.56 units
- ACQ score change ([3]; 4.5 mg/kg dose): 1.57 units
- ACQ score change ([3]; 6 mg/kg dose): 0.89 units
- improvement of ACQ score at W16 ([3]; ITT analysis, all masitinib-treated patients, p<0.001): 0.99 unit
- Oral corticosteroids absolute change (W 4 to W 16), Mean ± SD [3, 7]: −10.7 ± 19.2
- Oral corticosteroids absolute change (W 4 to W 16), Median [3, 7]: −14.0
- Patients weaned at W 16, number (percent) [3, 7]: 5 (41.7%)
- Oral corticosteroids absolute change (W 4 to W 16), Mean ± SD [3, 8]: 0.2 ± 26.8
- Oral corticosteroids absolute change (W 4 to W 16), Median [3, 8]: −7.5
- Patients weaned at W 16, number (percent) [3, 8]: 2 (25.0%)
- Oral corticosteroids absolute change (W 4 to W 16), Mean ± SD [3, 9]: −12.2 ± 18.5
- Oral corticosteroids absolute change (W 4 to W 16), Median [3, 9]: −11.3
- Patients weaned at W 16, number (percent) [3, 9]: 3 (37.5%)
- Oral corticosteroids absolute change (W 4 to W 16), Mean ± SD [3, 10]: −8.0 ± 21.3
- Oral corticosteroids absolute change (W 4 to W 16), Median [3, 10]: −12.3
- Patients weaned at W 16, number (percent) [3, 10]: 10 (35.7%)
- masitinib-related AE: diarrhea ([3]; all masitinib-treated patients): 18.2%
- masitinib-related AE: fatigue ([3]; all masitinib-treated patients): 12.1%
- masitinib-related AE: nausea ([3]; all masitinib-treated patients): 30.3%
- masitinib-related AE: peripheral edema ([3]; all masitinib-treated patients): 18.2%
- masitinib-related AE: pruritus ([3]; all masitinib-treated patients): 12.1%
- masitinib-related AE: skin rash ([3]; all masitinib-treated patients): 30.3%
- masitinib-related AE: vomiting ([3]; all masitinib-treated patients): 12.1%
- patients who experienced at least one AE ([3]; all patients treated with masitinib, regardless of dose): 93.9%
- change in lung function ([3]; in this trial): no significant change in lung function
- asthma exacerbation rate in patients experiencing at least one exacerbation, decrease ([3]; masitinib group, all doses merged): 42.4%
- rate of asthma exacerbation compared to placebo ([3]; masitinib-treated patients): significantly reduced
- percent reduction in oral corticosteroid doses ([3]; patients receiving >15 mg equivalent prednisone per day at baseline, all masitinib-treated patients): 52±53%
- patients weaned off oral corticosteroids at W16, number ([3]; patients receiving >15 mg equivalent prednisone per day at baseline, masitinib treatment groups): six
- Oral corticosteroids absolute change (W 4 to W 16), Mean ± SD [3, 11]: −17 ± 9
- Oral corticosteroids absolute change (W 4 to W 16), Median [3, 11]: −20
- Oral corticosteroids percent change (W 4 to W 16), Mean ± SD [3, 11]: −68 ± 38%
- Oral corticosteroids percent change (W 4 to W 16), Median [3, 11]: −81%
- Patients weaned at W 16, number (percent) [3, 11]: 4 (44.4%)
- Oral corticosteroids absolute change (W 4 to W 16), Mean ± SD [3, 12]: −7 ± 8
- Oral corticosteroids absolute change (W 4 to W 16), Median [3, 12]: −5
- Oral corticosteroids percent change (W 4 to W 16), Mean ± SD [3, 12]: −33 ± 42%
- Oral corticosteroids percent change (W 4 to W 16), Median [3, 12]: −19%
- Patients weaned at W 16, number (percent) [3, 12]: 0 (0.0%)
- Oral corticosteroids absolute change (W 4 to W 16), Mean ± SD [3, 13]: −14 ± 22
- Oral corticosteroids absolute change (W 4 to W 16), Median [3, 13]: −16
- Oral corticosteroids percent change (W 4 to W 16), Mean ± SD [3, 13]: −40 ± 78%
- Oral corticosteroids percent change (W 4 to W 16), Median [3, 13]: −69%
- Patients weaned at W 16, number (percent) [3, 13]: 2 (33.3%)
- Oral corticosteroids absolute change (W 4 to W 16), Mean ± SD [3, 14]: −14 ± 14
- Oral corticosteroids absolute change (W 4 to W 16), Median [3, 14]: −15
- Oral corticosteroids percent change (W 4 to W 16), Mean ± SD [3, 14]: −52 ± 53%
- Oral corticosteroids percent change (W 4 to W 16), Median [3, 14]: −65%
- FcεRI-mediated degranulation [4]: inhibition of FcεRI-mediated degranulation

Compound: omalizumab: an anti-immunoglobulin E antibody (anti-IgE) approved for severe allergic asthma
- malignant neoplasms observed in omalizumab-treated patients (patients [5]): 0.5%
- frequency of anaphylaxis attributed to omalizumab use (patients [6]): at least 0.2%
